Our source for the EC50, Inhibition and ED50 values is ChEMBL document CHEMBL1131861, “Antitumor agents 200. Cytotoxicity of naturally occurring resveratrol oligomers and their acetate derivatives” (1999).

A word on the Inhibition: it is the drop in the measured response relative to a control, in per cent. Read a high Inhibition as a strong effect.

Structures are written as SMILES. In brackets after ≈: the same amount, converted by molar mass. Activity calls are given as the source filed them. The rule behind the calls is not given here.

The test system of assay [1] is 1A9. The experiment in a line: Cytotoxicity against human ovarian cancer (1A9) cell lines. It counts as functional. The following applies: read-out: ED50 (the source's name).
Assay [2] has as its system A549. The experiment in a line: Percentage inhibition of human lung carcinoma (A549) cell lines. The class given is functional.
For assay [3], the system named is KB. In words: Percentage inhibition of human epidermoid carcinoma of the nasopharynx(KB) cell lines. The class given is functional.
The test system of assay [4] is KB. The experiment in a line: Cytotoxicity against human epidermoid carcinoma of the nasopharynx(KB) cell lines. It counts as functional. Conditions: read-out: ED50 (the source's name).
Assay [5] deals with MCF7. The experiment in a line: Percentage inhibition of human breast cancer(MCF-7) cell lines. The class given is functional.
Assay [6] relates to SAOS-2. The experiment in a line: Cytotoxicity against human osteosarcoma (SaOS-2) cell lines. The class given is functional. The following applies: read-out: ED50 (the source's name).
For assay [7], the system named is CAKI-1. In words: Percentage inhibition of human renal cancer(CAKI-1) cell lines. The class given is functional.
Assay [8] deals with 1A9. In words: Percentage inhibition of human ovarian cancer (1A9) cell lines. The class given is functional.
Assay [9] has as its system MCF7. The experiment in a line: Cytotoxicity against human breast cancer(MCF-7) cell lines. It counts as functional. Conditions: read-out: ED50 (the source's name).
Assay [10] relates to SAOS-2. The experiment in a line: Percentage inhibition of human osteosarcoma (SaOS-2) cell lines. The class given is functional.
In assay [11] the test system is A549. The experiment in a line: Cytotoxicity against human lung carcinoma (A549) cell lines. It counts as functional. Conditions: read-out: ED50 (the source's name).
Assay [12] has as its system CAKI-1. In words: Cytotoxicity against human renal cancer(CAKI-1) cell lines. The class given is functional. Conditions: read-out: ED50 (the source's name).
The test system of assay [13] is A549. In words: Cytotoxicity against human lung carcinoma (A549) cell lines; Not active. It counts as functional, cell-based.
The test system of assay [14] is HCT-8. The experiment in a line: Percentage inhibition human ileocecal carcinoma (HCT-8) cell lines. The class given is functional.
Assay [15] relates to HCT-8. In words: Cytotoxicity against human ileocecal carcinoma (HCT-8) cell lines. It counts as functional. The following applies: read-out: ED50 (the source's name).
Assay [16] deals with CAKI-1. In words: Cytotoxicity against human renal cancer(CAKI-1) cell lines; […]. The class given is functional, cell-based.

As to `Oc1ccc([C@H]2c3c(O)cc(O)cc3[C@H]3c4c(cc(O)cc4[C@@H]2O)O[C@@H]3c2ccc(O)cc2)cc1` [AMPELOPSIN A], the EC50 in the assay with 1A9 [1], in the assay with KB [4], with SAOS-2 [6], in the assay on MCF7 [9], in the assay with A549 [11] and with CAKI-1 [12] was over 20 mg/L each time. Besides, the Inhibition in the assay on A549 [2] is reported as 7%; with KB [3], 38%; in the assay on MCF7 [5], 10%; in the assay with CAKI-1 [7], 38%; in the assay with 1A9 [8] it was 32%; in the assay with SAOS-2 [10], 8%.
Turning to `CC(=O)Oc1ccc([C@@H]2c3c(OC(C)=O)cc(OC(C)=O)cc3[C@@H]3c4c(OC(C)=O)cc(OC(C)=O)cc4C2[C@H]3c2ccc(OC(C)=O)cc2)cc1`, the EC50 in the assay on 1A9 [1] is 6 mg/L (≈ 8.49 µM); with KB [4], 3 mg/L (≈ 4.25 µM); in the assay with MCF7 [9], over 10 mg/L; in the assay on HCT-8 [15] it was over 10 mg/L; in the assay on CAKI-1 [12], over 10 mg/L. In addition, the Inhibition is 43% in the assay with MCF7 [5], 21% in the assay on CAKI-1 [7] and 36% in the assay with HCT-8 [14]. Also, in the assay with A549 [13], the ED50 result was “inactive”.
`CC(=O)Oc1ccc(/C=C/c2cc(OC(C)=O)cc3c2[C@H](c2cc(OC(C)=O)cc(OC(C)=O)c2)[C@@H](c2ccc(OC(C)=O)cc2)O3)cc1`: the EC50 in the assay with 1A9 [1] came to 5.8 mg/L (≈ 8.73 µM); with KB [4], 7.5 mg/L (≈ 11.3 µM); in the assay on SAOS-2 [6] it was 7.5 mg/L (≈ 11.3 µM); with MCF7 [9] it was 4 mg/L (≈ 6.02 µM); with A549 [11], 20 mg/L (≈ 30.1 µM). In addition, in the assay on CAKI-1 [16], the ED50 result is “inactive”.
With `CC(=O)Oc1ccc([C@@H]2c3c(OC(C)=O)cc(OC(C)=O)cc3[C@H]3[C@H](c4ccc(OC(C)=O)cc4)c4c(OC(C)=O)cc(OC(C)=O)cc4[C@@H]23)cc1`, the EC50 in the assay with 1A9 [1] amounted to 3.2 mg/L (≈ 4.53 µM); in the assay on KB [4], 1.6 mg/L (≈ 2.26 µM); in the assay with MCF7 [9] it was 7.4 mg/L (≈ 10.5 µM); with HCT-8 [15] it was 8 mg/L (≈ 11.3 µM); in the assay on CAKI-1 [12], 8 mg/L (≈ 11.3 µM). Moreover, the ED50 entry in the assay on A549 [13] was “inactive”.
`Oc1ccc([C@@H]2c3c(O)cc(O)cc3[C@@H]3c4c(cc(O)cc4[C@H]2[C@@H]2c4cc(O)cc5c4[C@@H](c4cc(O)cc(O)c4[C@H]2c2ccc(O)cc2)[C@H](c2ccc(O)cc2)O5)O[C@H]3c2ccc(O)cc2)cc1`: the EC50 was 7.8 mg/L (≈ 8.6 µM) with 1A9 [1]; 1.2 mg/L (≈ 1.32 µM) with KB [4]; over 20 mg/L in the assay on SAOS-2 [6]; 4.2 mg/L (≈ 4.63 µM) in the assay on MCF7 [9]; 4.8 mg/L (≈ 5.29 µM) in the assay on A549 [11]. In addition, the Inhibition with SAOS-2 [10] was found to be 41%. The ED50 entry in the assay with CAKI-1 [16] is “inactive”.
As to `CC(=O)Oc1ccc([C@H]2c3c(OC(C)=O)cc(OC(C)=O)cc3[C@H]3c4c(cc(OC(C)=O)cc4[C@@H]2OC(C)=O)O[C@@H]3c2ccc(OC(C)=O)cc2)cc1`, the EC50 in the assay with 1A9 [1] amounted to 0.7 mg/L (≈ 0.969 µM); in the assay with KB [4], 0.6 mg/L (≈ 0.83 µM); with MCF7 [9] it was 2 mg/L (≈ 2.77 µM); with HCT-8 [15], 4.1 mg/L (≈ 5.67 µM); in the assay on CAKI-1 [12], 4 mg/L (≈ 5.53 µM). Further, the ED50 entry in the assay on A549 [13] was “inactive”.
